Assay results published in patent publication US9663473B2 (Actelion Pharmaceuticals Ltd, priority 2013, dated 2017).
Counter-ions that a name gives are not always drawn.

Target: T1, recombinant human ALX receptor (Homo sapiens, UniProt P25090)
T1 construct: expressed in transfected cells; host or cells: HEK293 (HEK293-hALXR-Gα16)
T1 sequence (P25090 1-351): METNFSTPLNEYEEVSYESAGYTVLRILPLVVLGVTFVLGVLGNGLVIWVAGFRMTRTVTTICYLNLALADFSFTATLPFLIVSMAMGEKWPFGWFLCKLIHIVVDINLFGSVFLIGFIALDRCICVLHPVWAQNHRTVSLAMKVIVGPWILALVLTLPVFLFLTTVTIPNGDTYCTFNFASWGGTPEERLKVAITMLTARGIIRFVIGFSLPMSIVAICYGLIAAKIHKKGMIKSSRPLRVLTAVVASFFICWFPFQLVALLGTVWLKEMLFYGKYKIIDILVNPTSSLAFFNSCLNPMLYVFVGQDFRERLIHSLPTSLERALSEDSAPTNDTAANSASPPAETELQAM
Test: Intracellular calcium measurements (FLIPR), ALX receptor agonistic activity
Assay type: cell-based
Conditions: HEK293-hALXR-Gα16 cells, Fluo-4 calcium signal, normalized to WKYMVm 10 nM
Procedure, shortened: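 Agonist-induced calcium flux was read by FLIPR (488/540 nm) as baseline-subtracted peak emission, expressed relative to WKYMVm at 10 nM final. Cells used: HEK293-hALXR-Gα16, dye-loaded 60 min at 37° C. with 1 μM Fluo-4 AM before compound dose-response addition.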

Row | Structure (SMILES) | EC50 [nM]
1 | COc1ccc(CC(NC(=O)N[C@H]2CC[C@H](O)CC2)c2nc3ccc(F)cc3[nH]2)c(F)c1 (single isomer, unassigned; ent-2) [Example 370, 1-(1-(6-Fluoro-1H-benzo[d]imidazol-2-yl)-2-(2-fluoro-4-methoxyphenyl)ethyl)-3-(trans-4-hydroxycyclohexyl)urea (ent-2)] | 717
2 | COc1ccc(CC(NC(=O)Nc2cc(C3CC3)nn2-c2ccccc2)c2nc3ccccc3[nH]2)cc1 (stereo not drawn) [Example 405, 1-(1-(1H-benzo[d]imidazol-2-yl)-2-(4-methoxyphenyl)ethyl)-3-(3-cyclopropyl-1-phenyl-1H-pyrazol-5-yl)urea] | 32
3 | COc1ccc(C[C@@H](NC(=O)N2CCC3CN(C(=O)OC(C)(C)C)CC32)c2nc3ccccc3[nH]2)cc1 (stereo partly drawn) [Example 120, tert-Butyl 1-(((R)-1-(1H-benzo[d]imidazol-2-yl)-2-(4-methoxyphenyl)ethyl)carbamoyl)hexahydropyrrolo[3,4-b]pyrrole-5(1H)-carboxylate] | 57
4 | COc1ccc(C[C@@H](NC(=O)NC2Cc3ccccc3C2)c2nc3ccccc3[nH]2)cc1 [Example 26, (R)-1-(1-(1H-Benzo[d]imidazol-2-yl)-2-(4-methoxyphenyl)ethyl)-3-(2,3-dihydro-1H-inden-2-yl)urea] | 109
5 | COc1ccc(C[C@@H](NC(=O)N[C@@H]2CCC[C@@H]2O)c2nc3ccccc3[nH]2)cc1 [Example 21, 1-((R)-1-(1H-Benzo[d]imidazol-2-yl)-2-(4-methoxyphenyl)ethyl)-3-((1R,2S)-2-hydroxycyclopentyl)urea] | 29
6 | O=C(NC(Cc1ccc(C(F)(F)F)cc1F)c1nc2cc(F)ccc2[nH]1)NC12CCC(O)(CC1)CC2 (single isomer, unassigned; ent-1) [Example 361, 1-(1-(5-Fluoro-1H-benzo[d]imidazol-2-yl)-2-(2-fluoro-4-(trifluoromethyl)phenyl)ethyl)-3-(4-hydroxybicyclo[2.2.2]octan-1-yl)urea (ent-1)] | 3.9
7 | COc1ccc(CC(NC(=O)NCCCN(C)C)c2nc3ccccc3[nH]2)cc1 (stereo not drawn) [Example 388, 1-(1-(1H-Benzo[d]imidazol-2-yl)-2-(4-methoxyphenyl)ethyl)-3-(3-(dimethylamino)propyl)urea] | 1070
8 | COc1ccc(C[C@@H](NC(=O)NCCC#N)c2nc3ccccc3[nH]2)cc1 [Example 69, (R)-1-(1-(1H-Benzo[d]imidazol-2-yl)-2-(4-methoxyphenyl)ethyl)-3-(2-cyanoethyl)urea] | 637
9 | COc1ccc(C[C@@H](NC(=O)N2CC3CC2CN3)c2nc3ccccc3[nH]2)cc1 (stereo partly drawn) [Example 129, N—((R)-1-(1H-Benzo[d]imidazol-2-yl)-2-(4-methoxyphenyl)ethyl)-2,5-diazabicyclo[2.2.1]heptane-2-carboxamide] | 279
10 | COc1ccc(C[C@H](NC(=O)NC2CC(C)(C)NC(C)(C)C2)c2nc3ccccc3[nH]2)cc1 [Example 397, (S)-1-(1-(1H-benzo[d]imidazol-2-yl)-2-(4-methoxyphenyl)ethyl)-3-(2,2,6,6-tetramethylpiperidin-4-yl)urea] | 808
11 | COc1ccc(C[C@@H](NC(=O)NC2(c3cccc(C)c3)CC2)c2nc3ccccc3[nH]2)cc1 [Example 354, (R)-1-(1-(1H-Benzo[d]imidazol-2-yl)-2-(4-methoxyphenyl)ethyl)-3-(1-(m-tolyl)cyclopropyl)urea] | 144
12 | COc1ccc(CC(NC(=O)Nc2ccnn2-c2ccccc2)c2nc3ccccc3[nH]2)cc1 (stereo not drawn) [Example 412, 1-(1-(1H-benzo[d]imidazol-2-yl)-2-(4-methoxyphenyl)ethyl)-3-(1-phenyl-1H-pyrazol-5-yl)urea] | 157
13 | COc1ccc(C[C@@H](NC(=O)NCCC2CCN(C)CC2)c2nc3ccccc3[nH]2)cc1 [Example 160, (R)-1-(1-(1H-Benzo[d]imidazol-2-yl)-2-(4-methoxyphenyl)ethyl)-3-(2-(1-methylpiperidin-4-yl)ethyl)urea] | 151
14 | COc1cc(F)c(CC(NC(=O)N[C@H]2CC[C@H](O)CC2)c2nc3ccccc3[nH]2)c(F)c1 (relative stereo) [Example 235, 1-(1-(1H-Benzo[d]imidazol-2-yl)-2-(2,6-difluoro-4-methoxyphenyl)ethyl)-3-(trans-4-hydroxycyclohexyl)urea] | 3.2
15 | COc1ccc(C[C@@H](NC(=O)NC[C@H](O)c2ccccc2)c2nc3ccccc3[nH]2)cc1 [Example 290, 1-((R)-1-(1H-Benzo[d]imidazol-2-yl)-2-(4-methoxyphenyl)ethyl)-3-((R)-2-hydroxy-2-phenylethyl)urea] | 37
16 | COc1ccc(CC(NC(=O)NC23CCC(O)(CC2)CC3)c2nc3ccc(F)cc3[nH]2)c(F)c1 (stereo not drawn) [Example 245, 1-(1-(6-Fluoro-1H-benzo[d]imidazol-2-yl)-2-(2-fluoro-4-methoxyphenyl)ethyl)-3-(4-hydroxybicyclo[2.2.2]octan-1-yl)urea] | 4.1
17 | O=C(NC(Cc1ccc(Br)c(F)c1)c1nc2ccccc2[nH]1)N[C@H]1CC[C@H](O)CC1 (relative stereo) [Example 187, 1-(1-(1H-Benzo[d]imidazol-2-yl)-2-(4-bromo-3-fluorophenyl)ethyl)-3-(trans-4-hydroxycyclohexyl)urea] | 8.1
18 | COc1ccc(C[C@@H](NC(=O)N[C@H]2CCCC[C@@H]2O)c2nc3ccccc3[nH]2)cc1 (relative stereo) [Example 24, 1-((R)-1-(1H-Benzo[d]imidazol-2-yl)-2-(4-methoxyphenyl)ethyl)-3-((1 S*,2S*)-2-hydroxycyclohexyl)urea] | 24
19 | COc1ccc(C[C@@H](NC(=O)NC2CC=CC2)c2nc3ccccc3[nH]2)cc1 [Example 13, (R)-1-(1-(1H-Benzo[d]imidazol-2-yl)-2-(4-methoxyphenyl)ethyl)-3-(cyclopent-3-en-1-yl)urea hydrochloride] | 27
20 | COc1ccc(C[C@@H](NC(=O)N[C@H]2CCC[C@H]2O)c2nc3ccccc3[nH]2)cc1 [Example 114, 1-((R)-1-(1H-Benzo[d]imidazol-2-yl)-2-(4-methoxyphenyl)ethyl)-3-((1S,2R)-2-hydroxycyclopentyl)urea] | 190
21 | COc1ccc(C[C@@H](NC(=O)N[C@@H](C)c2ccc(Cl)cc2)c2nc3ccccc3[nH]2)cc1 [Example 328, 1-((R)-1-(1H-Benzo[d]imidazol-2-yl)-2-(4-methoxyphenyl)ethyl)-3-((S)-1-(4-chlorophenyl)ethyl)urea] | 152
22 | COc1cc(F)c(CC(NC(=O)NC23CCC(O)(CC2)CC3)c2nc3ccc(F)cc3[nH]2)c(F)c1 (single isomer, unassigned; ent-1) [Example 367, 1-(2-(2,6-Difluoro-4-methoxyphenyl)-1-(6-fluoro-1H-benzo[d]imidazol-2-yl)ethyl)-3-(4-hydroxybicyclo[2.2.2]octan-1-yl)urea (ent-1)] | 0.1
23 | O=C(NC(Cc1ccc(OC(F)(F)F)cc1)c1nc2ccccc2[nH]1)NC1CN2CCC1CC2 (stereo not drawn) [Example 141, 1-(1-(1H-Benzo[d]imidazol-2-yl)-2-(4-(trifluoromethoxy)phenyl)ethyl)-3-(quinuclidin-3-yl)urea] | 834
24 | COc1ccc(C[C@@H](NC(=O)NCc2ncc(Br)cc2F)c2nc3ccccc3[nH]2)cc1 [Example 291, (R)-1-(1-(1H-Benzo[d]imidazol-2-yl)-2-(4-methoxyphenyl)ethyl)-3-((5-bromo-3-fluoropyridin-2-yl)methyl)urea] | 439
